Experimental data as given in ChEMBL document CHEMBL1129805, “Novel conformationally constrained analogues of diacylglycerol. Protein kinase C binding affinity of simplified compounds based on a 6-membered lactam moiety” (Bioorg Med Chem Lett, 1997).
pEC50, pKi: −log10 of the molar value.

Tests used:
HL-60 [1] = experiment: Effective dose required to […] the differentiation to monocytes of HL-60 cells; Inactive; format: functional; conditions: Homo sapiens, read-out: ED50 (the source's name)
[2] = molecular target: Protein kinase C delta type (Homo sapiens, UniProt Q05655); experiment: Displacement of [3H]PDBu from Protein kinase C delta
Protein kinase C delta type, sequence (Q05655 whole entry): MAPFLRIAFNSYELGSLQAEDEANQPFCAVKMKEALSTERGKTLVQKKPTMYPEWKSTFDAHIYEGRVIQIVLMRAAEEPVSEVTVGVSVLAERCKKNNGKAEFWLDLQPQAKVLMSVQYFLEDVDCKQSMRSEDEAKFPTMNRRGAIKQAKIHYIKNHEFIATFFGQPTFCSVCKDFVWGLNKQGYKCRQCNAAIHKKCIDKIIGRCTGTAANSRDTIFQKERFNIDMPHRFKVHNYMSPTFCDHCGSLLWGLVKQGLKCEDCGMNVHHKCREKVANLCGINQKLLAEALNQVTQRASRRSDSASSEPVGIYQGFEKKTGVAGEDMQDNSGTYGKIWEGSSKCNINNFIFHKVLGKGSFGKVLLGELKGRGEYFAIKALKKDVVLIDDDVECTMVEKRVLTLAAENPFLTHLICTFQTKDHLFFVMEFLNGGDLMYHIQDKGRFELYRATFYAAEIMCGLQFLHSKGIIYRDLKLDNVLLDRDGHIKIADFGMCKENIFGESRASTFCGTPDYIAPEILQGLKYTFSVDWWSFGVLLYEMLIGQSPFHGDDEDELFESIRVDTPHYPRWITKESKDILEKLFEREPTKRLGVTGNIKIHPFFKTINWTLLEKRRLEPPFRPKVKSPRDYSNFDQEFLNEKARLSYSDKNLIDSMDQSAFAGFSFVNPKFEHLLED

HL-60 [3] = experiment: Effective dose required to […] the differentiation to monocytes of HL-60 cells; Weaker activity; format: functional; conditions: Homo sapiens, read-out: ED50 (the source's name)
HL-60 [4] = experiment: Effective dose required to […] the differentiation to monocytes of HL-60 cells; format: functional; conditions: Homo sapiens, read-out: ED50 (the source's name)

pEC50 (HL-60 [1])	pKi [2]	pEC50 (HL-60 [3])	pEC50 (HL-60 [4])	SMILES
< 5.30	4.92	–	–	CCCCCCCCCCCCCCN1C[C@H](CO)NC(=O)[C@H]1C(C)C
–	5.19	–	–	CCCCCCCCCCCCCCN1C[C@@H](CO)NC(=O)[C@H]1C(C)C
–	5.57	6.00	–	CCCCCCCCCCCCCCN1C[C@H](CO)NC(=O)[C@@H]1C(C)C
–	6.54	–	6.70	CCCCCCCCCCCCCCN1C[C@@H](CO)NC(=O)[C@@H]1C(C)C
